Where a name gives a salt, the structure may show the parent alone.
What was measured:
Format in all cases: in vivo, rats (Sprague Dawley)
[1] = system: aconitine-induced arrhythmia of rats; test: Anti-arrhythmic effect on aconitine-induced arrhythmia in rats, oral administration; details: for ED50 / Emax: Rattus norvegicus, po; for ED50: read-out: ED 50% (dose which lengthens the duration of aconitine infusion by 50%); for Emax: read-out: R.M.E. = relative maximum effect; for Maximum effect: lengthening of the duration of aconitine infusion, Δ%: at the maximum tolerated dose, oral, rats; for R.A. = relative activity: relative to Prajmalium = 1.00, from ED 50%; for anti-arrhythmic activity compared with Prajmalium: in words, aconitine-induced arrhythmia of rats
Procedure: (§1) To determine the anti-arrhythmic activity, the substances are administered orally to rats (Sprague Dawley, weight 200-250 g), 45 minutes before narcosis.
(§2) The animals are narcotized with sodium thiobutabarbital (100 mg/kg administered intraperitoneally). The arrhythmogenic substance used is aconitine, which is infused intravenously, at a rate of 0.005 mg/kg×min 60 minutes after the administration of the anti-arrhythmicagent. In untreated animals (N=52), arrhythmias manifest themselves in the electrocardiogram (ECG) after 2.74±0.07 min, and the occurrence of these can be delayed by the anti-arrhythmic agents, the delay being dependent on the dose.
The dose which lengthens the duration of infusion up to the occurrence of arrhythmias by 50%, namely the ED 50%, is determined from the linear relationships between log dose (mg/kg) of the test substance and the relative increase in the duration of aconitine infusion (Δ%).
(§3) For further characterization of the substances, the anti-arrhythmic effect of the maximum tolerated dose is determined from the decimal-geometric dose progression (factor 3.cuberoot.10) employed in the experiments. Furthermore, the dose at which toxic symptoms (changes in the initial ECG, cyanosis and cramps) occur is determined.
^(1) Dose which lengthens the duration of aconitine infusion by 50%
^(2) R.A. = relative activity. Prajmalium = 1.00
(§4) ^(3) Effect of the maximum tolerated dose
^(4) Lengthening of the duration of aconitin infusion, Δ %
^(5) R.M.E. = relative maximum effect, Prajmalium = 1.00

[2] = Toxicity / toleration in rats (changes in the initial ECG, cyanosis and cramps), oral administration; set-up: Toxicity: Dose whose administration produces the first toxic symptoms: unit: mg/kg; details: rat, in vivo; oral, rats; mg/kg printed only over the effective dose columns and in b40 (log dose); read-out: Maximum effect: Dose (maximum tolerated dose)
Procedure: as §1, §2, §3, §4
(§5) ^(6) Dose whose administration produces the first toxic symptoms

[3] = system: rats; test: as above; set-up: Toxicity: Dose whose administration produces the first toxic symptoms: unit: mg/kg; details: for Toxicity: Dose whose administration produces the first toxic symptoms / Q (therapeutic range, quotient of the toxic dose and the ED 50%): oral, rats; for Toxicity: Dose whose administration produces the first toxic symptoms: mg/kg printed only over the effective dose columns and in b40 (log dose); for Q (therapeutic range, quotient of the toxic dose and the ED 50%): toxic dose / ED 50%
Procedure: as §1, §2, §3, §4, §5

Row | Compound | ED50 [1] [mg/kg] | Emax [1] [%] | Maximum effect: lengthening of the duration of aconitine infusion, Δ% [1] [%] | R.A. = relative activity [1] | MTD [2] [mg/kg] | Toxicity: Dose whose administration produces the first toxic symptoms [3] | Q (therapeutic range, quotient of the toxic dose and the ED 50%) [3] | anti-arrhythmic activity compared with Prajmalium [1] | toxic dose compared with Prajmalium ([3]; in words)
1 | COC(=O)c1[nH]c(C)c(C)c1OCC(O)CN1CCC(O)(c2ccccn2)CC1 (stereo not drawn) [Example 7, 3-[2-hydroxy-3-(4-α-pyridyl-4-hydroxy-piperidino)-propoxy]-4,5-dimethylpyrrole-2-carboxylic acid methyl ester] | 13.5 | 176 | 307 | 0.37 | 46.4 | 100 | 7.4 |  | 
2 | CCOC(=O)c1[nH]c(C)c(C)c1OCC(O)CN1CCC(O)(c2ccccc2)CC1 (centres unmarked) [Example 2, 3-[2-hydroxy-3-(4-phenyl-4-hydroxy-piperidino)-propoxy]-4,5-dimethyl-pyrrole-2-carboxylic acid ethyl ester hydrochloride] | 6.23 | 98 | 170 | 0.80 | 21.5 | 46.4 | 7.5 | as active as Prajmalium | 
3 | COC(=O)c1[nH]c(C)c(C)c1OCCCCN1CCC(O)(c2ccccc2)CC1 [Example 11, 3-[4-(4-phenyl-4-hydroxy-piperidino)-butoxy]-4,5-dimethylpyrrole-2-carboxylic acid methyl ester] | 5.54 | 177 | 308 | 0.90 | 21.5 | 46.4 | 8.4 | as active as Prajmalium | 
4 | COC(=O)c1[nH]c(C)c(C)c1OCC(O)CN1CCC(O)(c2ccccc2)CC1 (centres unmarked) [Example 19, 3-[2-hydroxy-3-(4-phenyl-4-hydroxy-piperidino)-propoxy]-4,5-dimethyl-pyrrole-2-carboxylic acid methyl ester] | 3.38 | 174 | 302 | 1.48 | 21.5 | 46.4 | 14 | surpass the latter | 
5 | COC(=O)c1[nH]c(C)c(C)c1OCCCN1CCC(O)(c2ccccc2)CC1 [Example 6, 3-[3-(4-phenyl-4-hydroxy-piperidino)-propoxy]-4,5-dimethylpyrrole-2-carboxylic acid methyl ester] | 3.68 | 87 | 152 | 1.36 | 10 | 21.5 | 5.8 | surpass the latter | of equal toxicity to Prajmalium
6 | CCOC(=O)c1[nH]c(C)c(C)c1OCC(O)CN1CCC(O)(c2ccccn2)CC1 (stereo not drawn) [Example 1, 3-[2-hydroxy-3-(4-α-pyridyl-4-hydroxy-piperidino)-propoxy]-4,5-dimethyl-pyrrole-2-carboxylic acid ethyl ester dihydrochloride] | 7.8 | 186 | 324 | 0.64 | 46.4 | 100 | 13 |  | 
7 | CCOC(=O)c1[nH]c(C)c(C)c1OCC(O)CN1CCC(O)(c2ccc(F)cc2)CC1 (centres unmarked) [Example 13, 3-[2-hydroxy-3-(4-(p-fluorophenyl)-4-hydroxy-piperidino)-propoxy]-4,5-dimethylpyrrole-2-carboxylic acid ethyl ester] | 5.93 | 86 | 149 | 0.84 | 21.5 | 46.4 | 7.8 | as active as Prajmalium | 
8 | CCOC(=O)c1[nH]c(C)c(C)c1OCCN1CCC(O)(c2ccccc2)CC1 [Example 10, 3-[2-(4-phenyl-4-hydroxy-piperidino)-ethoxy]-4,5-dimethylpyrrole-2-carboxylic acid ethyl ester] | 2.99 | 199 | 347 | 1.67 | 21.5 | 46.4 | 16 | surpass the latter | 
9 | CCCCc1c(C)[nH]c(C(=O)OCC)c1OCC(O)CN1CCC(O)(c2ccccc2)CC1 (centres unmarked) [Example 21, 3-[2-hydroxy-3-(4-phenyl-4-hydroxy-piperidino)-propoxy]-4-n-butyl-5-methyl-pyrrole-2-carboxylic acid ethyl ester] | 9.85 | 99 | 173 | 0.51 | 46.4 | 100 | 10 |  | 
10 | CCC[N+]12C(O)C(CC)C3CC1C1N(C)c4ccccc4C14CC2C3C4O (centres unmarked) [Prajmalium, N-propylajmalin, reference compound] | 4.99 | 100 | 174 | 1.00 | 10 | 21.5 | 4.3 |  | 
